Read-outs that look alike come from different tables or passages of the source. Numbered stars: 1 amine (or outer) side, 2 acyl side, 3 side chain; on linkers, the order of the positions; unused ones are H or OH. Peptide text beside a SMILES is read from it. * marks the point of attachment. C18 diacid = O=C(O)CCCCCCCCCCCCCCCCC(=O)*; γGlu = O=C(O)[C@H](CCC(=O)[*:2])N[*:1]; AEEA = NCCOCCOCC(=O)O
What was measured:
[1] = design: species or system Göttingen mini-pigs; settings: minipig, in vivo, iv, 10 nmol/kg
Experimental: Assay (II): Minipig i.v. PK
Six male Göttingen mini-pigs weighing approximately 20 to 23 kg from Ellegaard Gottingen Minipigs A/S, Denmark were comprised in the study. The mini-pigs were dosed intra venous (i.v.) via a central catheter in vena cava caudalis. The catheter was flushed with 10 ml saline post administration. Blood was sampled from the central catheter. Test substances were dissolved in a vehicle consisting of in 50 mM sodium phosphate, […] sodium chloride, 0.05% tween80 pH 7.4. The pigs were dosed with 10 nmol of gastrin compound (such as gastrin derivative)/kg body weight or 10 nmol Gastrin-17/kg body weight. Blood samples were taken at the following time points: pre-dose, 5 minutes, 15 minutes, 30 minutes, 45 minutes, 1, 1.5, 2, 3, 4, 6, 8, 10, 24, 48, 72, 96, 120, 168, 192 and 216 hours post dosing. The blood samples were collected into test tubes containing EDTA buffer for stabilization and kept on ice for max. 20 minutes before centrifugation. The centrifugation procedure to separate plasma may be: 4° C., approx. 2500 g for 10 minutes. Plasma was collected and immediately transferred to Micronic tubes stored at −20° C. until assayed.
Blood samples were analysed for gastrin compound content using a competitive scintillation proximity assay (SPA). The assay is a radiometric-ligand binding assay using […]™ imaging particles. The assay involves a rabbit anti-human gastrin-17(2-17) polyclonal antibody, wherein the human gastrin-17(2-17) against which said antibody raised contained position 2-17 of SEQ ID NO:2 (said antibody is obtainable from professor Jens Rehfeld, Rigshospitalet, Copenhagen, Denmark), [^125I]-Tyr^12 gastrin I (human) (which has the sequence pG1u-[…][^125I]Tyr-Gly-Trp-Met-Asp-Phe-NH2, item no. NEX176010UC, […]® Waltham, Massachusetts, USA) and PS […]™ particles coated with anti-rabbit Ig antibodies. Gastrin compounds (in calibrators, controls or unknown samples) and [^125I]-Tyr12 human gastrin I will compete for the binding to the polyclonal rabbit anti human gastrin I antibody. The anti-rabbit Ig antibodies on the […]™ particles recognize the anti-gastrin antibodies bringing the [^125I-] gastrin molecules in close proximity to the […]™ particles resulting in light emission from the particles. The […]™ will image the emitted light that is reversely correlated to the amount of gastrin compound present in the sample. 5μL sample, calibrator or control was applied to white 384-well polystyrene plates followed by 10μantibody working solution (rabbit-anti-Gastrin serum from rabbit 2609 batch 11/10-73), 10μl tracer working solution and 10μl bead working solution. […] After exchanging the seal against a new one, the light emission was detected with a […]™ Multimodality Imaging System. […]
The concentration-response relationship was calculated using a four-parameter logistic model using non linear regression analysis and the output of the assay was the concentration of the respective gastrin analogue in pM. The in vivo plasma half life was determined by non-compartmental analysis (NCA) of plasma concentration-time profiles from each animal. NCA may be carried out as follows: Plasma concentration-time profiles were analyzed by non-compartmental pharmacokinetics analysis (NCA) using WinNonlin (Pharsight Inc., Mountain View, Calif., USA); NCA was performed using the individual plasma concentration-time profiles from each animal.
Half life of gastrin compounds was determined according to Assay (II).

[2] = molecular target: T1, CCK2 receptor (gastrin receptor) (Homo sapiens, UniProt P32239); type: cell-based; settings: [Leu15] Gastrin-17 = 100, NIH 3T3/CCK2R cells, calcium mobilization
T1 construct: expressed in transfected cells; host or cells: NIH 3T3/CCK2R cells (mouse fibroblast line overexpressing CCK2R, kept under G418 selection)
T1 sequence (P32239 1-447): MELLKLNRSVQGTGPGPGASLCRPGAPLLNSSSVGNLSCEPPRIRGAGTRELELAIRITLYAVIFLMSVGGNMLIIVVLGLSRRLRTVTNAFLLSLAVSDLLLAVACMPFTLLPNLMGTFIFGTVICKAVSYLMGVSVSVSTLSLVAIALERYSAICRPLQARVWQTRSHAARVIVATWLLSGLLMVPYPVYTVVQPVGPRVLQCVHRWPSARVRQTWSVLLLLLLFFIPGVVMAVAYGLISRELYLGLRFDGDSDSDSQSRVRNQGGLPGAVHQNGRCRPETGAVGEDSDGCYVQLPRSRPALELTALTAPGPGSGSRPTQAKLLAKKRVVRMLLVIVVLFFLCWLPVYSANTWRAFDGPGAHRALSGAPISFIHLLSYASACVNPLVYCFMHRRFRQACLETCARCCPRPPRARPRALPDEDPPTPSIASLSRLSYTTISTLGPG
Experimental: Assay (I): In Vitro Receptor Potency In vitro receptor potency was measured using a CCK2 receptor mediated calcium mobilization assay. The CCK2 receptor (gastrin receptor) signals via the heterotrimeric G-protein, Gq, to activate phospholipase C(PLC). This leads to generation of inositol-1,4,5-trisphosphate (IP3) that releases calcium from intracellular stores. The primary rise in cytosolic calcium concentration is followed by activation of calcium dependent calcium channels in the plasma membrane allowing extracellular calcium to enter the cell. The rise in calcium concentration is transient, but it can be measured in situ by loading the cells with a calcium dependent fluorescent probe and monitored by the use of 96- or 384-well fluorescence plate readers. In the current assay, NIH 3T3/CCK2R cells were seeded in black PolyLysin coated 384 well plates with clear bottom at 14000 cells per well and incubated overnight in 25 μl (per well) Gibco Nut. mix F-12 Glutamax medium with 10% FCS, 1% penicillin and streptomycin and 1 mg/ml […]418). The next day […] dye solution (Ca 5 probe from Molecular Devices, dissolved in HBSS/Hepes buffer pH 7.4 containing 0.1% Ovalbumin, 0.005% Tween 20, 3.5 μM Probenecid, 50 μM PDE inhibitor and 0.2% CaCl2) was added per well and the plate was incubated for 1 hour at room temperature. After incubation, these plates were loaded onto FLIPR Tetra from Molecular Devices together with the sample plates containing dilution series of gastrin analogues in HBSS/Hepes buffer with 30% DMSO. During the assay run, 1 μl sample was transferred from the sample plate to the assay plate. Beside the baseline fluorescence measurement, a second fluorescence measurement was performed after 30 seconds with both measurements using the […] 540 nm/590 nm. For each agonist concentration E=Emax. Emin was calculated. The concentration-response relationship was calculated using a four-parameter logistic model using non linear regression analysis (Prism 5.02, GraphPad Software). In vitro receptor potency of gastrin compounds was measured using Assay (I).

[3] = dog, in vivo; cited from earlier work
[4] = Table 2: N-terminal acylation/truncation series

Compound | half-life [1] [h] | Relative Receptor Potency [2, 4] | Relative Receptor Potency ([2]; Table 3: acylation position (Lys scan) series) | half life [3] [min]
CC(C)C[C@H](NC(=O)[C@H](Cc1c[nH]c2ccccc12)NC(=O)CNC(=O)[C@H](Cc1ccc(O)cc1)NC(=O)[C@H](C)NC(=O)[C@H](CCC(=O)O)NC(=O)[C@H](CCC(=O)O)NC(=O)[C@H](CCC(=O)O)NC(=O)[C@H](CCC(=O)O)NC(=O)COCCOCCNC(=O)COCCOCCNC(=O)CC[C@H](NC(=O)CCCCCCCCCCCCCCCCC(=O)O)C(=O)O)C(=O)N[C@@H](CC(=O)O)C(=O)N[C@@H](Cc1ccccc1)C(N)=O [N-α-#-[Leu15] Gastrin-17 (7-17), N-alpha-{2-(2-{2-[2-(2-{2-[4-Carboxy-4-(17-carboxyheptadecanoylamino)butyrylamino]ethoxy}-ethoxy)acetylamino]-ethoxy}ethoxy)acetyl}[Leu15] gastrin-17 (7-17)] ({C18 diacid-γGlu-AEEA-AEEA}-EEEEAYGWLDF-NH2) | ~95 | 39 | – | –
CSCC[C@H](NC(=O)[C@H](Cc1c[nH]c2ccccc12)NC(=O)CNC(=O)[C@H](Cc1ccc(O)cc1)NC(=O)[C@H](C)NC(=O)[C@H](CCC(=O)O)NC(=O)[C@H](CCC(=O)O)NC(=O)[C@H](CCC(=O)O)NC(=O)[C@H](CCC(=O)O)NC(=O)[C@H](CCC(=O)O)NC(=O)[C@H](CC(C)C)NC(=O)[C@H](Cc1c[nH]c2ccccc12)NC(=O)[C@@H]1CCCN1C(=O)CNC(=O)[C@H](CCC(N)=O)NC(=O)COCCOCCNC(=O)COCCOCCNC(=O)CC[C@H](NC(=O)CCCCCCCCCCCCCCCCC(=O)O)C(=O)O)C(=O)N[C@@H](CC(=O)O)C(=O)N[C@@H](Cc1ccccc1)C(N)=O [N-alpha-#-gastrin-17, N-alpha-{2-(2-{2-[2-(2-{2-[4-Carboxy-4-(17-carboxyheptadecanoylamino)butyrylamino]ethoxy}-ethoxy)acetylamino]-ethoxy}ethoxy)acetyl}[Gln1] gastrin-17 (A)] | 64 ± 6 | – | – | –
CC(C)C[C@H](NC(=O)[C@H](Cc1c[nH]c2ccccc12)NC(=O)CNC(=O)[C@H](Cc1ccc(O)cc1)NC(=O)[C@H](C)NC(=O)[C@H](CCC(=O)O)NC(=O)[C@H](CCC(=O)O)NC(=O)[C@H](CCC(=O)O)NC(=O)[C@H](CCC(=O)O)NC(=O)[C@H](CCC(=O)O)NC(=O)[C@H](CC(C)C)NC(=O)[C@H](Cc1c[nH]c2ccccc12)NC(=O)[C@@H]1CCCN1C(=O)CNC(=O)[C@H](CCC(N)=O)NC(=O)COCCOCCNC(=O)COCCOCCNC(=O)CC[C@H](NC(=O)CCCCCCCCCCCCCCCCC(=O)O)C(=O)O)C(=O)N[C@@H](CC(=O)O)C(=O)N[C@@H](Cc1ccccc1)C(N)=O [N-α-#-[Leu15] Gastrin-17, N-alpha-{2-(2-{2-[2-(2-{2-[4-Carboxy-4-(17-carboxyheptadecanoylamino)butyrylamino]ethoxy}-ethoxy)acetylamino]-ethoxy}ethoxy)acetyl}[Gln1,Leu15] gastrin-17] ({C18 diacid-γGlu-AEEA-AEEA}-QGPWLEEEEEAYGWLDF-NH2) | 109 ± 26 | 76 | 57 | –
CC(C)C[C@H](NC(=O)[C@H](Cc1c[nH]c2ccccc12)NC(=O)CNC(=O)[C@H](Cc1ccc(O)cc1)NC(=O)[C@H](C)NC(=O)[C@H](CCC(=O)O)NC(=O)[C@H](CCC(=O)O)NC(=O)[C@H](CCC(=O)O)NC(=O)[C@H](CCC(=O)O)NC(=O)[C@H](CCC(=O)O)NC(=O)[C@H](CC(C)C)NC(=O)[C@H](Cc1c[nH]c2ccccc12)NC(=O)COCCOCCNC(=O)COCCOCCNC(=O)CC[C@H](NC(=O)CCCCCCCCCCCCCCCCC(=O)O)C(=O)O)C(=O)N[C@@H](CC(=O)O)C(=O)N[C@@H](Cc1ccccc1)C(N)=O [N-α-#-[Leu15] Gastrin-17 (4-17), N-alpha-{2-(2-{2-[2-(2-{2-[4-Carboxy-4-(17-carboxyheptadecanoylamino)butyrylamino]ethoxy}-ethoxy)acetylamino]-ethoxy}ethoxy)acetyl}[Leu15] gastrin-17 (4-17)] ({C18 diacid-γGlu-AEEA-AEEA}-WLEEEEEAYGWLDF-NH2) | 95 | 58 | – | –
CSCC[C@H](NC(=O)[C@H](Cc1c[nH]c2ccccc12)NC(=O)CNC(=O)[C@H](Cc1ccc(O)cc1)NC(=O)[C@H](C)NC(=O)[C@H](CCC(=O)O)NC(=O)[C@H](CCC(=O)O)NC(=O)[C@H](CCC(=O)O)NC(=O)[C@H](CCC(=O)O)NC(=O)[C@H](CCC(=O)O)NC(=O)[C@H](CC(C)C)NC(=O)[C@H](Cc1c[nH]c2ccccc12)NC(=O)[C@@H]1CCCN1C(=O)CNC(=O)[C@@H](N)CCC(N)=O)C(=O)N[C@@H](CC(=O)O)C(=O)N[C@@H](Cc1ccccc1)C(N)=O [gastrin-17, reference compound] | 0.058 ± 0.007 | – | – | 2 to 8
